# Source: article PMC6104039 (Nature Communications, 2018)
# How the values were obtained:
# soleus muscle strips = assay: Palmitate oxidation in soleus muscle strips pre-treated in vitro; set-up: species or system mice; details: 1.5 h in vitro, 1 μM
# Description: After a 30 min pre-incubation, muscles were transferred into vials containing 0.5 mCi/mL of [1-^14C]-palmitate in modified Krebs-Henseleit buffer for another 1 h. The reaction was stopped by removal of the muscles and addition of 1 M perchloric acid to the reaction mixture. ^14C-labelled CO2 was quantified as described above. The muscles were blotted dry and snap frozen in liquid nitrogen for subsequent lipid extraction and TLC. Muscles were homogenized using a Polytron (Kinematica, Littau-Lucerne, Switzerland) in 1.5 mL 2:1 chloroform-methanol (v/v). […] The upper aqueous phase was used to quantify ASM, and the lower organic phase was collected and dried under stream of N2, then reconstituted in hexane and spotted on a Silica Gel 60 F254 TLC plate. The TLC plate was developed in hexane/diethyl ether/glacial acetic acid (85:15:1), then air dried. TAG bands were visualised using iodine vapour staining, using an external standard to mark their position, then scraped into vials and quantified by liquid scintillation counting.
# CerS1 = molecular target: T1, CerS1 (Homo sapiens, UniProt P27544); assay: CerS1 activity as a function of substrate concentration (Vmax, Khalf, mode of inhibition); format: biochemical; set-up: expressed in transfected cells; details: dihydrosphingosine and C18:0-CoA substrates
# T1 sequence (P27544 1-350): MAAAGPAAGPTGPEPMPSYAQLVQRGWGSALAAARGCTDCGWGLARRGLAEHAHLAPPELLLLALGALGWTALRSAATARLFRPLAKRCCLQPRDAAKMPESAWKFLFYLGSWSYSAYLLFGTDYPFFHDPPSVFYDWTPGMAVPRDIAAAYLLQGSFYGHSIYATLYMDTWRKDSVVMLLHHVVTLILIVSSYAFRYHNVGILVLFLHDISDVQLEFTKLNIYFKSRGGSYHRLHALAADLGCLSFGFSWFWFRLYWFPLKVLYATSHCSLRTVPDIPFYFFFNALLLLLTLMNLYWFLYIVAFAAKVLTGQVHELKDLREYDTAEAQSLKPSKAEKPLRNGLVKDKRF
# HEK293 cells = assay: Non-viable cells by propidium iodide staining and flow cytometry, 72 h; format: cell-based; details: at or below 1 μM
# Description: Lipid levels are expressed as a percentage of vehicle control levels. […] All graphs show combined data from two independent experiments, each with 3 (a) or 4 (b-d) separate cell treatments, mean ± SEM. Statistical significance in (b-d) was determined by t-tests adjusted for multiple comparisons, comparing all lipids (22 lipids tested in total) at each concentration to the control group; ^+P < 0.05; ^#P < 0.01; *P < 0.001
# SkM [1] = assay: Targeted quantification of sphingosine and dihydrosphingosine in SkM; format: in vivo, mice; details: 5 mg/kg daily
# Source text: Male C57BL6/J mice were obtained from the Animal Resources Centre in Perth (WA, Australia). […] Treatment was commenced at the same time as mice were randomised to dietary groups. The experiments were approved by the UNSW animal care and ethics committee (ACEC 15/48B), and followed guidelines issued by the National Health and Medical Research Council of Australia.
# SkM [2] = assay: Mitochondrial DNA content of SkM by quantitative PCR; format: in vivo, mice
# Description: Total DNA was isolated using standard phenol:chloroform extraction, followed by RNase H (NEB) treatment. Relative levels of nuclear and mitochondrial DNA were determined by quantitative PCR on a LightCycler 480 (Roche) using SensiFAST SYBR mastermix (Bioline). Primers for quantification of genomic DNA were: 5′- […]-3′, and 5′- […]-3′; and mitochondrial DNA: 5′- […]-3′, and 5′- […]-3′[73]. Calibration curves of Ct against input DNA were prepared from a pooled sample of mouse SkM DNA, and used to calculate the relative abundance of mitochondrial to nuclear DNA in each sample.
smiles,measurement,setting,value
"C[C@@](N)(CO)CCc1ccc(OCc2ccc(Cl)c(Cl)c2)cc1 [P053, (S)-2-amino-4-(4-(3,4-dichlorobenzyloxy)phenyl)-2-methylbutan-1-ol]",palmitate oxidation,soleus muscle strips,not affected
same,mode of inhibition,CerS1,non-competitive inhibitor
same,HEK293 cell viability,HEK293 cells,no effect
same,dihydrosphingosine levels in SkM,SkM [1],not notably affected
same,increase of sphingosine levels in SkM,SkM [1]; HFD,22%
same,increase of sphingosine levels in SkM,"SkM [1]; chow diet, not significant",11%
same,mitochondrial DNA content,SkM [2],elevated
